In patent publication US11339128B2 (Firmenich Incorporated, priority 2014, dated 2022):

Tests used:
[1] = target: T1, T1R2/T1R3 taste receptor (Homo sapiens, UniProt Q7RTX0+Q8TE23); test: Receptor-based assay: sweetener EC50 enhancement ratio with and without test compound; type: cell-based; details: for Sucrose Enhancement EC50 Ratio: sweetener sucrose; for Sucralose Enhancement EC50 Ratio: sweetener sucralose; for Fructose Enhancement EC50 Ratio: sweetener fructose
T1 sequence (Q8TE23 20-839): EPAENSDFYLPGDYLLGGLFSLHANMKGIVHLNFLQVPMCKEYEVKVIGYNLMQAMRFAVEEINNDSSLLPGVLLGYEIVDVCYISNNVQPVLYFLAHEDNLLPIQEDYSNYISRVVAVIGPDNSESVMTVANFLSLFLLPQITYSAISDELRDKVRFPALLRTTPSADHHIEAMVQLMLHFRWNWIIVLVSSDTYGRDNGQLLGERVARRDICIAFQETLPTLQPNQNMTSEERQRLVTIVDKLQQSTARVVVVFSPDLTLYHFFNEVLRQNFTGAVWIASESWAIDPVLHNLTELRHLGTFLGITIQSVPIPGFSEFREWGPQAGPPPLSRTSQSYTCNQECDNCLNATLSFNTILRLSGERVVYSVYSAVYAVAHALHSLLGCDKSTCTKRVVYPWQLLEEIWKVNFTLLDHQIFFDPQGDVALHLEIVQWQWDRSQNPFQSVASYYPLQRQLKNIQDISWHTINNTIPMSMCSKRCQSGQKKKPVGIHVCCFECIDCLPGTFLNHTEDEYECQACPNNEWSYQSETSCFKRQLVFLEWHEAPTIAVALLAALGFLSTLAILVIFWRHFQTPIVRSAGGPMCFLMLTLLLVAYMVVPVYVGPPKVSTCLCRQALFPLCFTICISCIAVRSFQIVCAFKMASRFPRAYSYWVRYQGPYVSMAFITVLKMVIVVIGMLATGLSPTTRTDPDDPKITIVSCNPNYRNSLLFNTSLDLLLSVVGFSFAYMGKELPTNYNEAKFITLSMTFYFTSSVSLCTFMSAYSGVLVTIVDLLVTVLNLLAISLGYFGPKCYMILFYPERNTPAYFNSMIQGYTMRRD
T1 sequence (Q7RTX0 21-852): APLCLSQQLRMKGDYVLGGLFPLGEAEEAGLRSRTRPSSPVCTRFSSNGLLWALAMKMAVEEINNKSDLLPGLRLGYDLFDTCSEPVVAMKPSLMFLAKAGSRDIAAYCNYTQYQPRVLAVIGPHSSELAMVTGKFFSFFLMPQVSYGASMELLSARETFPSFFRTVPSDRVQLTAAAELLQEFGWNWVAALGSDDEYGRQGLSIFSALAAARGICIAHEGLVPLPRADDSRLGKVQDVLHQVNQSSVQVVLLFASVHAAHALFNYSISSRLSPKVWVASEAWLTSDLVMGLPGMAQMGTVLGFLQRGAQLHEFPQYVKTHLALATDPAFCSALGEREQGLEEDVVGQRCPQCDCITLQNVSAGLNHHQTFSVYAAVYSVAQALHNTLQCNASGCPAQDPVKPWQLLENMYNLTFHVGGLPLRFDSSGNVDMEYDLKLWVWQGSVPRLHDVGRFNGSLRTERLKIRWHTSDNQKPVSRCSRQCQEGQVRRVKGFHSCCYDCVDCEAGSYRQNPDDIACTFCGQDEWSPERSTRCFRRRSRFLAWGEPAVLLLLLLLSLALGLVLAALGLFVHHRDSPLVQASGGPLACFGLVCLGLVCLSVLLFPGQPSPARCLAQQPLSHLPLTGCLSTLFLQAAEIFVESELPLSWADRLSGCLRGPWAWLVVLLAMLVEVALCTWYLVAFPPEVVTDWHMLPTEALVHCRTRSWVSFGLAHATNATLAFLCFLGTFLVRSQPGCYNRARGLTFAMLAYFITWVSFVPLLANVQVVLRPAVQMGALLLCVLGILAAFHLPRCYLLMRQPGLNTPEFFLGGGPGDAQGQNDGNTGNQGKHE
Summary of the method: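 Sweetener (sucrose, sucralose, fructose) EC50 measured alone and with 1, 3, 10 or 50 μM test compound. Enhancement ratio = EC50 without/with compound; A = >1 to <10, B = 10–20, C = >20.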

[2] = Sensory paired-comparison sweetness test of sweetener (sucrose or high-fructose corn syrup) with test compound; type: in vivo, human; details: test compound 10 ppm or less with 6% sucrose, low sodium buffer pH 7.1; sucrose-alone concentration of equivalent perceived sweetness
Experimental: Test samples containing either a sweetener (sucrose or high-fructose corn syrup) alone or in combination with a test compound were presented in pairs to a group of panelist who were asked to determine which of the samples was sweeter. Subjects refrained from eating or drinking (except water) for at least 1 hour prior to the test. Subjects rinsed with water several times to clean the mouth. The samples within a paired comparison test were presented in a randomized, counterbalanced order. Panelists had up to a 1 minute delay between taste tests to clear the mouth of any tastes. Binomial probability tables were used to determine the probability of the correct number of responses occurring for each test at alpha-0.05.
Stock solutions of test compounds were prepared at 1000× final concentration with ethanol to ensure dispersion in solution. Test compound samples including sucrose were prepared by diluting the stock solutions in a low sodium buffer (0.952 g of KCl, 5.444 g of Na2HPO4, and 0.952 g of KH2PO4 in deionized ultrafiltered water) at pH 7.1 and containing sucrose. Test compound samples including high fructose corn syrup were prepared by diluting the stock solutions in the low sodium buffer at pH 2.8 (using citric acid to adjust the pH) and containing high fructose corn syrup. Control samples were balanced to 0.1% ethanol final.
In samples containing the test compound, the test compound was present at a concentration of 10 ppm or less and the concentration of sucrose was 6%. This table indicates the sucrose-alone concentration having a perceived sweetness intensity equivalent to the sweetness intensity of the combination of test compound and sucrose. An “A” value indicates an equivalent sucrose concentration greater than 6% and less than 10%. A “B” value indicates an equivalent sucrose concentration of 10% or greater. […]

| SMILES | Sucrose Enhancement EC50 Ratio ([1]; 1 μM test compound) | Sucralose Enhancement EC50 Ratio ([1]; 3 μM test compound) | Sucrose Enhancement EC50 Ratio ([1]; 3 μM test compound) | Sucralose Enhancement EC50 Ratio ([1]; 10 μM test compound) | Sucrose Enhancement EC50 Ratio ([1]; 10 μM test compound) | Equivalent Sucrose Conc. [2] | Fructose Enhancement EC50 Ratio ([1]; 10 μM test compound) | Fructose Enhancement EC50 Ratio ([1]; 50 μM test compound) |
| --- | --- | --- | --- | --- | --- | --- | --- | --- |
| Cc1nc2cccc(O[C@H]3CC[C@H](Nc4ncccn4)CC3)c2c(N)c1C(=O)O [Compound 700, 4-Amino-2-methyl-5-((trans-4-(pyrimidin-2-ylamino)cyclohexyl)oxy) quinolone-3-carboxylic acid] | A (an enhancement ratio of greater than 1 and less than 10) | C (an enhancement ratio greater than 20) | C (an enhancement ratio greater than 20) | C (an enhancement ratio greater than 20) | C (an enhancement ratio greater than 20) | B (an equivalent sucrose concentration of 10% or greater) |  |  |
| Cc1nc2cccc(O[C@H]3CC[C@H](NC(=O)COCC(C)C)CC3)c2c(N)c1C(=O)O [Compound 307] | A (an enhancement ratio of greater than 1 and less than 10) | B (an enhancement ratio from 10 to 20) | C (an enhancement ratio greater than 20) |  |  | B (an equivalent sucrose concentration of 10% or greater) |  |  |
| Cc1nc2cccc(O[C@H]3CC[C@H](NC(=O)COC4CCC4)CC3)c2c(N)c1C(=O)O [Compound 309] | B (an enhancement ratio from 10 to 20) | B (an enhancement ratio from 10 to 20) | A (an enhancement ratio of greater than 1 and less than 10) | B (an enhancement ratio from 10 to 20) | B (an enhancement ratio from 10 to 20) | B (an equivalent sucrose concentration of 10% or greater) | A (an enhancement ratio of greater than 1 and less than 10) |  |
| Cc1nc2cccc(O[C@H]3CC[C@H](NC(=O)COC4CCCC4)CC3)c2c(N)c1C(=O)O [Compound 310] | C (an enhancement ratio greater than 20) | B (an enhancement ratio from 10 to 20) |  | A (an enhancement ratio of greater than 1 and less than 10) |  | B (an equivalent sucrose concentration of 10% or greater) | A (an enhancement ratio of greater than 1 and less than 10) |  |
| Cc1nc2cccc(O[C@H]3CC[C@H](NC(=O)CCCC(C)C)CC3)c2c(N)c1C(=O)O [Compound 319] | A (an enhancement ratio of greater than 1 and less than 10) |  | A (an enhancement ratio of greater than 1 and less than 10) |  | A (an enhancement ratio of greater than 1 and less than 10) |  |  |  |
| Cc1nc2cccc(O[C@H]3CC[C@H](Nc4ncc(F)cn4)CC3)c2c(N)c1C(=O)O [Compound 704] | A (an enhancement ratio of greater than 1 and less than 10) | B (an enhancement ratio from 10 to 20) | A (an enhancement ratio of greater than 1 and less than 10) | B (an enhancement ratio from 10 to 20) | B (an enhancement ratio from 10 to 20) |  | A (an enhancement ratio of greater than 1 and less than 10) | A (an enhancement ratio of greater than 1 and less than 10) |
| CCOCCOCC(=O)N[C@H]1CC[C@H](Oc2cccc3nc(C)c(C(=O)O)c(N)c23)CC1 [Compound 332] | A (an enhancement ratio of greater than 1 and less than 10) |  | B (an enhancement ratio from 10 to 20) |  |  |  |  |  |
| Cc1nc2cccc(O[C@H]3CC[C@H](NC(=O)COCCOCc4ccccc4)CC3)c2c(N)c1C(=O)O [Compound 333] | A (an enhancement ratio of greater than 1 and less than 10) |  | B (an enhancement ratio from 10 to 20) |  |  |  |  |  |
| Cc1nccc(N[C@H]2CC[C@H](Oc3cccc4nc(C)c(C(=O)O)c(N)c34)CC2)n1 [Compound 714] | A (an enhancement ratio of greater than 1 and less than 10) | A (an enhancement ratio of greater than 1 and less than 10) | A (an enhancement ratio of greater than 1 and less than 10) | A (an enhancement ratio of greater than 1 and less than 10) | A (an enhancement ratio of greater than 1 and less than 10) |  | A (an enhancement ratio of greater than 1 and less than 10) | A (an enhancement ratio of greater than 1 and less than 10) |
| CCOC(C)(C)C(=O)N[C@H]1CC[C@H](Oc2cccc3nc(C)c(C(=O)O)c(N)c23)CC1 [Compound 316] | A (an enhancement ratio of greater than 1 and less than 10) |  | A (an enhancement ratio of greater than 1 and less than 10) |  | B (an enhancement ratio from 10 to 20) |  |  |  |
| Cc1nc2cccc(O[C@H]3CC[C@H](NC(=O)COCC4CCCCC4)CC3)c2c(N)c1C(=O)O [Compound 337] | A (an enhancement ratio of greater than 1 and less than 10) |  | C (an enhancement ratio greater than 20) |  |  |  |  |  |
| CCSCC(=O)N[C@H]1CC[C@H](Oc2cccc3nc(C)c(C(=O)O)c(N)c23)CC1 [Compound 318] | A (an enhancement ratio of greater than 1 and less than 10) |  | A (an enhancement ratio of greater than 1 and less than 10) | B (an enhancement ratio from 10 to 20) | B (an enhancement ratio from 10 to 20) |  |  | A (an enhancement ratio of greater than 1 and less than 10) |
| CCc1nc2cccc(O[C@H]3CC[C@H](C(C)(C)C)CC3)c2c(N)c1C(=O)O [Compound 204] | A (an enhancement ratio of greater than 1 and less than 10) |  | A (an enhancement ratio of greater than 1 and less than 10) |  | A (an enhancement ratio of greater than 1 and less than 10) |  |  |  |
